Columns and labels:
Assay in all cases: relative viability (nuclei count vs DMSO), 5 days (fraction); higher = more cells survive
[1] = test system: HCC-15
In short: (§1)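 Lung cancer cell lines were pin-tool dosed in 1536-well plates on the day after seeding, with either a lone drug or a fixed anchor-drug dose plus five library-drug doses (not always all listed) in √10 steps. Nuclei were counted on 4× images after 5 days. Relative viability is the ratio of treated-well to vehicle-well nuclei counts, with each value a median of duplicate plates.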

[2] = test system: NCI-H2009
In short: as §1

[3] = test system: COR-L23
In short: as §1

[4] = test system: NCI-H358
In short: as §1

[5] = test system: NCI-H1755
In short: as §1

[6] = test system: NCI-H2342
In short: as §1

[7] = test system: NCI-H2023
In short: as §1

[8] = test system: SK-MES-1
In short: as §1

[9] = test system: LC-2-ad
In short: as §1

[10] = test system: NCI-H1437
In short: as §1

[11] = test system: EMC-BAC-2
In short: as §1

[12] = test system: NCI-H2347
In short: as §1

[13] = test system: NCI-H1793
In short: as §1

[14] = test system: PC-14
In short: as §1

[15] = test system: NCI-H1792
In short: as §1

[16] = test system: NCI-H23
In short: as §1

[17] = test system: NCI-H650
In short: as §1

[18] = test system: NCI-H1915
In short: as §1

[19] = test system: COR-L 105
In short: as §1

[20] = test system: NCI-H1395
In short: as §1

[21] = test system: 201T
In short: as §1

With `Cc1csc(=NC2CCCCC2)n1/N=C/c1ccc(O)c(O)c1O` [MIM1] + CCNC(=O)c1noc(-c2cc(C(C)C)c(O)cc2O)c1-c1ccc(CN2CCOCC2)cc1 [Luminespib] (partner 0.01 µM) the relative viability ([1]; first compound 0.2 µM) was 0.244, the relative viability ([1]; first compound 0.6325 µM) was 0.353 and the relative viability ([1]; first compound 2 µM) was 0.43. The relative viability ([1]; first compound 6.325 µM) was 0.259, the relative viability ([1]; first compound 20 µM) was 0.133 and the relative viability ([2]; first compound 0.2 µM) was 1. For the same compound, the relative viability ([2]; first compound 0.6325 µM) was 1.06, the relative viability ([2]; first compound 2 µM) was 1.03 and the relative viability ([2]; first compound 6.325 µM) was 0.877. It also gave a relative viability ([2]; first compound 20 µM) of 1.02, a relative viability ([3]; first compound 0.2 µM) of 0.555 and a relative viability ([3]; first compound 0.6325 µM) of 0.75. The relative viability ([3]; first compound 2 µM) was 0.7, the relative viability ([3]; first compound 6.325 µM) was 0.469 and the relative viability ([3]; first compound 20 µM) was 0.321. The relative viability ([4]; first compound 0.2 µM) was 0.472, the relative viability ([4]; first compound 0.6325 µM) was 0.292 and the relative viability ([4]; first compound 2 µM) was 0.303. It also gave a relative viability ([4]; first compound 6.325 µM) of 0.204, a relative viability ([4]; first compound 20 µM) of 0.211 and a relative viability ([5]; first compound 0.2 µM) of 0.455. For the same compound, the relative viability ([5]; first compound 0.6325 µM) was 0.51, the relative viability ([5]; first compound 2 µM) was 0.703 and the relative viability ([5]; first compound 6.325 µM) was 0.459. The relative viability ([5]; first compound 20 µM) was 0.414, the relative viability ([6]; first compound 0.2 µM) was 0.739 and the relative viability ([6]; first compound 0.6325 µM) was 0.723. For the same compound, the relative viability ([6]; first compound 2 µM) was 0.642, the relative viability ([6]; first compound 6.325 µM) was 0.624 and the relative viability ([6]; first compound 20 µM) was 0.985. For the same compound, the relative viability ([7]; first compound 0.2 µM) was 0.791, the relative viability ([7]; first compound 0.6325 µM) was 0.691 and the relative viability ([7]; first compound 2 µM) was 0.646. It also gave a relative viability ([7]; first compound 6.325 µM) of 0.388, a relative viability ([7]; first compound 20 µM) of 0.07 and a relative viability ([8]; first compound 0.2 µM) of 0.754. It also gave a relative viability ([8]; first compound 0.6325 µM) of 0.828, a relative viability ([8]; first compound 2 µM) of 0.708 and a relative viability ([8]; first compound 6.325 µM) of 0.55. It also gave a relative viability ([8]; first compound 20 µM) of 0.215, a relative viability ([9]; first compound 0.2 µM) of 1.06 and a relative viability ([9]; first compound 0.6325 µM) of 0.964. It also gave a relative viability ([9]; first compound 2 µM) of 0.727, a relative viability ([9]; first compound 6.325 µM) of 0.485 and a relative viability ([9]; first compound 20 µM) of 0.233. It also gave a relative viability ([10]; first compound 0.2 µM) of 1.07, a relative viability ([10]; first compound 0.6325 µM) of 1.1 and a relative viability ([10]; first compound 2 µM) of 0.992. The relative viability ([10]; first compound 6.325 µM) was 0.846, the relative viability ([10]; first compound 20 µM) was 0.452 and the relative viability ([11]; first compound 0.2 µM) was 1.12. For the same compound, the relative viability ([11]; first compound 0.6325 µM) was 1.14, the relative viability ([11]; first compound 2 µM) was 1.13 and the relative viability ([11]; first compound 6.325 µM) was 1.03. For the same compound, the relative viability ([11]; first compound 20 µM) was 0.423, the relative viability ([12]; first compound 0.2 µM) was 0.496 and the relative viability ([12]; first compound 0.6325 µM) was 0.403. It also gave a relative viability ([12]; first compound 2 µM) of 0.236, a relative viability ([12]; first compound 6.325 µM) of 0.346 and a relative viability ([12]; first compound 20 µM) of 0.334. The relative viability ([13]; first compound 0.2 µM) was 0.187, the relative viability ([13]; first compound 2 µM) was 0.188 and the relative viability ([13]; first compound 6.325 µM) was 0.162. It also gave a relative viability ([13]; first compound 20 µM) of 0.138, a relative viability ([14]; first compound 0.2 µM) of 0.177 and a relative viability ([14]; first compound 0.6325 µM) of 0.137. It also gave a relative viability ([14]; first compound 2 µM) of 0.17, a relative viability ([14]; first compound 6.325 µM) of 0.115 and a relative viability ([14]; first compound 20 µM) of 0.144. It also gave a relative viability ([15]; first compound 0.2 µM) of 0.449, a relative viability ([15]; first compound 0.6325 µM) of 0.43 and a relative viability ([15]; first compound 2 µM) of 0.5. The relative viability ([15]; first compound 6.325 µM) was 0.398, the relative viability ([15]; first compound 20 µM) was 0.396 and the relative viability ([16]; first compound 0.2 µM) was 0.262. It also gave a relative viability ([16]; first compound 0.6325 µM) of 0.208, a relative viability ([16]; first compound 6.325 µM) of 0.198 and a relative viability ([16]; first compound 20 µM) of 0.211. For the same compound, the relative viability ([17]; first compound 0.2 µM) was 0.822, the relative viability ([17]; first compound 0.6325 µM) was 0.619 and the relative viability ([17]; first compound 2 µM) was 0.85. It also gave a relative viability ([17]; first compound 6.325 µM) of 0.704, a relative viability ([17]; first compound 20 µM) of 0.288 and a relative viability ([18]; first compound 0.2 µM) of 0.743. The relative viability ([18]; first compound 0.6325 µM) was 0.641, the relative viability ([18]; first compound 2 µM) was 0.685 and the relative viability ([18]; first compound 6.325 µM) was 0.579. It also gave a relative viability ([18]; first compound 20 µM) of 0.183, a relative viability ([19]; first compound 0.2 µM) of 0.721 and a relative viability ([19]; first compound 0.6325 µM) of 0.918. For the same compound, the relative viability ([19]; first compound 2 µM) was 0.813, the relative viability ([19]; first compound 6.325 µM) was 0.642 and the relative viability ([19]; first compound 20 µM) was 0.801. It also gave a relative viability ([20]; first compound 0.2 µM) of 0.66, a relative viability ([20]; first compound 0.6325 µM) of 0.547 and a relative viability ([20]; first compound 2 µM) of 0.755. It also gave a relative viability ([20]; first compound 6.325 µM) of 0.573, a relative viability ([20]; first compound 20 µM) of 0.293 and a relative viability ([21]; first compound 0.2 µM) of 1.03. The relative viability ([21]; first compound 0.6325 µM) was 1.05, the relative viability ([21]; first compound 2 µM) was 1.03 and the relative viability ([21]; first compound 6.325 µM) was 0.548. The relative viability ([21]; first compound 20 µM) was 0.368.

From the supplement of paper PMC10307832
